{"source": "patent US20080261891A1", "about": "“COMPOSITIONS AND METHODS FOR USING SYRINGOPEPTIN 25A AND RHAMNOLIPIDS” (Utah State University, priority 2007, published 2008)", "key": {"M. tuberculosis H37Rv": {"test_system": "M. tuberculosis H37Rv", "experiment": "MIC by microplate Alamar Blue assay (MABA)", "assay_type": "cell-based, Mycobacterium tuberculosis", "conditions": "7H12 media"}, "[1]": {"test_system": "mouse enteroendocrine cells (STC-1)", "experiment": "Toxicity to mammalian cells, percent cell death (Nucleocounter)", "conditions": "positive control", "method": "(§1) Toxicity of the two compounds to mammalian cells was assayed in cell culture using mouse enteroendocrine cells (STC-1), human embryonic kidney cells (HEK 293; ATCC CRL-1573), and human lung fibroblasts (LL47; ATCC CCL-135). […] The human embryonic kidney cells and human lung fibroblasts were grown as per the American Type Culture Collection's recommendation, while the mouse enteroendocrine cells were grown as described by Vincent et al. (2001, Proc. Natl. Acad. Sci., 99:2392-2397). Media and sera were purchased from HyClone Laboratories (Logan, Utah). All cells were grown in 10% fetal bovine serum (FBS).\n(§2) The number in the parenthesis represents the concentration of each compound in μg/mL. The percent cell death was benchmarked to 100% lysis with the positive control. The number of total cells and dead cells were counted after 6, 24, and 48 h using a Nucleocounter Automated cell counting system (New Brunswick; Edison, N.J.). Briefly, cells (STC, 200,000 cells/well; HEK 293, 200,000 cells/well; and LL47, 100,000 cells/well) were incubated in the appropriate medium for 24 h prior to addition of fresh media containing the antimicrobial compounds. After addition of the antimicrobial compound, the cell cultures were incubated at 37° C. with 5% CO2 for 6, 24, and 48 h. Cells were harvested by trypsinization using 0.25% trypsin-EDTA for 2 min. The trypsin was neutralized by addition of 200 μL of serum containing fresh medium. The cells were then harvested and transferred to 1.5 mL tubes, centrifuged (3-5 min at <100×g), and resuspended in 200 μL of fresh medium. For the total cell count, 100 μL of the suspension was added to lysis buffer (Reagent A100 in the starting kit (Cat No. M1293-0020, New Brunswick Scientific) for 30 s, which was stabilized using 100 μL of Reagent B. A positive control of completely lysed cells was used along with a negative control using sterile PBS (pH 7.4). For dead cell counts, 100 μL of cell lysate was counted without the use of lysis buffer or stabilizing buffer. All cell counts were obtained using the Nucleocounter automated cell counting system. Data were reported as the percent of cell death. The toxicity testing was done in replicate using three wells per test."}, "[2]": {"test_system": "human lung fibroblasts (LL47)", "experiment": "Toxicity to mammalian cells, percent cell death (Nucleocounter)", "conditions": "positive control", "method": "as §1, §2"}, "[3]": {"test_system": "human embryonic kidney cells (HEK 293)", "experiment": "Toxicity to mammalian cells, percent cell death (Nucleocounter)", "conditions": "positive control", "method": "as §1, §2"}}, "data": [{"compound": "NNC(=O)c1ccncc1", "note": "[Isoniazid]", "values": [{"measurement": "expected MIC range (quality control)", "setting": "M. tuberculosis H37Rv", "value": "0.025 to 0.1", "unit": "µg/mL"}]}, {"compound": "triton [reference compound]", "values": [{"measurement": "lysis", "setting": "[1]", "value": 100, "unit": "%"}, {"measurement": "lysis", "setting": "[2]", "value": 100, "unit": "%"}, {"measurement": "lysis", "setting": "[3]", "value": 100, "unit": "%"}]}]}
